Assay results taken from patent publication US20240366553A1, “ASPARTIC ACID COPPER COMPLEX, AND USE THEREOF” (GUANGZHOU INSIGHTER BIOTECHNOLOGY CO., LTD., priority 2021, published 2024).
Read-outs that look alike come from different tables or passages of the source.

Tests used:
[1] = system: Lingnan yellow-feathered, fast-growing, and large-sized broilers; details: for Feed conversion decreased by / Relative weight gain rate increased by: versus control; for Average feed consumption / Average weight gain / Feed-to-meat ratio / Survival rate (%) / Relative weight gain rate (%): broilers aged 1 to 21 days; for Relative weight gain rate (%): relative to control group; for Physical characteristics of the experimental chickens: experimental groups of compounds 1-7
Text: (§1) Experimental animals: 900 one-day-old Lingnan yellow-feathered, fast-growing, and large-sized broilers; 150 weaned piglets;
(§2) Feeds: basal feed for chickens and basal feed for pigs that contain no antimicrobial drugs, copper sources and growth promoters;
(§3) Experimental samples: compound 1, compound 2, compound 3, compound 4, compound 5, compound 6, compound 7,
900 one-day-old Lingnan yellow-feathered, fast-growing, and large-sized broilers were randomly divided into 18 groups (50 broilers/group). […] The broilers had free access to food. The weight gain and feed conversion of the experimental chickens (aged from 1 to 21 days) in each experimental group were recorded.

[2] = system: black carp (subyearlings); experiment: Use of aspartic acid copper complex in aquaculture feeds (black carp breeding experiment); type: in vivo; details: 30 mg/kg in feed (as copper ions), 8 weeks
Procedure: Experimental fishes: The experimental fishes used were black carp (subyearlings), which were provided by the Dafeng fish nursery (Huizhou city, Guangdong province). Healthy and active fingerling black carps (uniform in size) were fed for 4 weeks in a big net cage (4×2×1.5 m^3) and then the formal breeding experiment was carried out. The experimental systems were small floating net cages (1.1×1.1×1.1 m^3 in size). Each small net cage was provided with an air-filling head, which allowed for continuous inflation of the cages for 24 h a day. The small net cages and the acclimatization net cage were all placed in a 3500 m^2 pond in the experimental field. […] During the trial, 480 black carps (fasted for 1 d) were randomly divided into 10 groups, with 4 replicates for each group and 12 fishes in each replicate. After weighing as a whole, the black carps were randomly placed into […] and fed with different experimental feeds.
Experimental feeds: The experimental feeds were formulated following the formula in Table 5. According to Table 6, different copper element supplements (calculated based on the copper ions) were added to the feeds in different experimental groups, respectively. The feed raw materials were subjected to ultrafine grinding and then granulated into floating expanded feeds (3 mm) using an expansion machine from Jiangsu Muyang Corporation. The demolding temperature was 130° C. 3% soybean oil was externally sprayed using an oil spraying device. The finished product was sealed and stored in a cool place for later use.
Experimental management: During the trial, the carps were manually fed in a restricted dose. The feeding dose was adjusted once a week, and the doses for all groups (based on the initial body weight) were completely consistent. The carps were fed twice a day (at 7:30 and 15:00). The experiment lasted for 8 weeks. During the trial, the water quality was regularly monitored, and throughout the breeding, the water temperature was kept at 26.88±3.08° C., DO>5.0 mg O L^−1, pH 7.8, ammonia nitrogen<0.50 mg NL^−1, and nitrite-nitrogen<0.05 mg N L^−1.
Parametric statistics: During the trial, the carps in each net cage were weighed as a whole one day after discontinuation of feeding, and the average weight gain (g) and feed-to-meat ratio were calculated. The calculation formulas are as follows:
Average weight gain (g)=Average final weight−Average initial weight; Feed-to-meat ratio=Food intake/Weight gain of fishes;

weaned piglets = details: for Average weight gain / Feed-to-meat ratio / Survival rate (%) / Total feed consumption / Total weight gain / Relative weight gain rate (%): weaned piglets, 30 days; for Total feed consumption / Total weight gain: 10 pigs; for Relative weight gain rate (%): control group = 100; for Improvement in the feed conversion of the experimental pigs compared with compound 4: used at the same doses (50 mg/kg)
Text: as §1, §2, §3
150 weaned piglets were grouped according to Table 2 (10 piglets/group). […] The piglets had free access to food. The weight gain and feed conversion of the experimental pigs in each experimental group were recorded within 30 days after […] weaning.

[3] = 50 mg/kg in feed (as copper ion)
[4] = L-aspartic acid 105 mg/kg in feed, no copper source
[5] = L-aspartic acid group (105 mg/kg)
[6] = L-aspartic acid 104 mg/kg in feed, no copper source

Structure (SMILES): N[C@@H](CC(=O)[O-])C(=O)[O-].[Cu+2] [Compound 4, [(Cu(II))(L-Asp)]]
- Feed conversion decreased by ([1]; 50 mg/kg (as copper ion)): 3.23%
- Relative weight gain rate increased by ([1]; 50 mg/kg (as copper ion)): 7.2%
- Average feed consumption [1, 3]: 924 g
- Average weight gain [1, 3]: 508 g
- Feed-to-meat ratio [1, 3]: 1.819
- Survival rate (%) [1, 3]: 100%
- Relative weight gain rate (%) [1, 3]: 107.2%
- Physical characteristics of the experimental chickens [1]: normal physical characteristics
- Average weight gain [2]: 344 g
- Feed-to-meat ratio [2]: 1.453
- Average weight gain (weaned piglets; [3]): 11.67 kg
- Feed-to-meat ratio (weaned piglets; [3]): 2.208
- Survival rate (%) (weaned piglets; [3]): 100%
- Total feed consumption (weaned piglets; [3]): 257.63 kg
- Total weight gain (weaned piglets; [3]): 116.7 kg
- Relative weight gain rate (%) (weaned piglets; [3]): 107.06%

Structure (SMILES): N[C@@H](CC(=O)O)C(=O)O [L-aspartic acid, reference compound]
- Average feed consumption [1, 4]: 899 g
- Average weight gain [1, 4]: 480 g
- Feed-to-meat ratio [1, 4]: 1.873
- Survival rate (%) [1, 4]: 100%
- Relative weight gain rate (%) [1, 4]: 101.3%
- Feed conversion decreased by [1, 5]: 0.32%
- Relative weight gain rate increased by [1, 5]: 4.2%
- Average weight gain (weaned piglets; [6]): 11.04 kg
- Feed-to-meat ratio (weaned piglets; [6]): 2.285
- Survival rate (%) (weaned piglets; [6]): 100%
- Total feed consumption (weaned piglets; [6]): 252.27 kg
- Total weight gain (weaned piglets; [6]): 110.4 kg
- Relative weight gain rate (%) (weaned piglets; [6]): 101.28%

Structure (SMILES): NC(CC(=O)[O-])C(=O)[O-].O.O.[Cu+2] (racemic) [Compound 5, [(Cu(II))(DL-Asp)(H2O)2]]
- Average feed consumption [1, 3]: 917 g
- Average weight gain [1, 3]: 503 g
- Feed-to-meat ratio [1, 3]: 1.824
- Survival rate (%) [1, 3]: 100%
- Relative weight gain rate (%) [1, 3]: 106.1%
- Physical characteristics of the experimental chickens [1]: normal physical characteristics
- Average weight gain [2]: 349 g
- Feed-to-meat ratio [2]: 1.433
- Average weight gain (weaned piglets; [3]): 11.83 kg
- Feed-to-meat ratio (weaned piglets; [3]): 2.184
- Survival rate (%) (weaned piglets; [3]): 100%
- Total feed consumption (weaned piglets; [3]): 258.35 kg
- Total weight gain (weaned piglets; [3]): 118.3 kg
- Relative weight gain rate (%) (weaned piglets; [3]): 108.5%

Structure (SMILES): NC(CC(=O)[O-])C(=O)[O-].O.O.[Cu+2] (racemic) [Compound 7, [(Cu(II))(DL-Asp)(H2O)2]·(H2O)0.16]
- Average feed consumption [1, 3]: 921 g
- Average weight gain [1, 3]: 515 g
- Feed-to-meat ratio [1, 3]: 1.789
- Survival rate (%) [1, 3]: 100%
- Relative weight gain rate (%) [1, 3]: 108.6%
- Physical characteristics of the experimental chickens [1]: normal physical characteristics
- Average weight gain [2]: 350 g
- Feed-to-meat ratio [2]: 1.429
- Average weight gain (weaned piglets; [3]): 12.16 kg
- Feed-to-meat ratio (weaned piglets; [3]): 2.198
- Survival rate (%) (weaned piglets; [3]): 100%
- Total feed consumption (weaned piglets; [3]): 267.33 kg
- Total weight gain (weaned piglets; [3]): 121.6 kg
- Relative weight gain rate (%) (weaned piglets; [3]): 111.6%

Structure (SMILES): N[C@@H](CC(=O)[O-])C(=O)[O-].O.O.[Cu+2] [Compound 2, [(Cu(II))(L-Asp)(H2O)2]. (H2O)0.34]
- Average feed consumption [1, 3]: 908 g
- Average weight gain [1, 3]: 509 g
- Feed-to-meat ratio [1, 3]: 1.783
- Survival rate (%) [1, 3]: 100%
- Relative weight gain rate (%) [1, 3]: 107.4%
- Physical characteristics of the experimental chickens [1]: normal physical characteristics
- Average weight gain [2]: 368 g
- Feed-to-meat ratio [2]: 1.359
- Average weight gain (weaned piglets; [3]): 12.30 kg
- Feed-to-meat ratio (weaned piglets; [3]): 2.116
- Survival rate (%) (weaned piglets; [3]): 100%
- Total feed consumption (weaned piglets; [3]): 260.21 kg
- Total weight gain (weaned piglets; [3]): 123.0 kg
- Relative weight gain rate (%) (weaned piglets; [3]): 112.8%
- Improvement in the feed conversion of the experimental pigs compared with compound 4 (weaned piglets): about 2 fold

Structure (SMILES): N[C@@H](CC(=O)[O-])C(=O)[O-].[Cu+2] (racemic) [Compound 6, [(Cu(II))(DL-Asp)]]
- Average feed consumption [1, 3]: 912 g
- Average weight gain [1, 3]: 510 g
- Feed-to-meat ratio [1, 3]: 1.789
- Survival rate (%) [1, 3]: 100%
- Relative weight gain rate (%) [1, 3]: 107.6%
- Physical characteristics of the experimental chickens [1]: normal physical characteristics
- Average weight gain [2]: 353 g
- Feed-to-meat ratio [2]: 1.416
- Average weight gain (weaned piglets; [3]): 12.08 kg
- Feed-to-meat ratio (weaned piglets; [3]): 2.173
- Survival rate (%) (weaned piglets; [3]): 100%
- Total feed consumption (weaned piglets; [3]): 262.46 kg
- Total weight gain (weaned piglets; [3]): 120.8 kg
- Relative weight gain rate (%) (weaned piglets; [3]): 110.8%

Structure (SMILES): N[C@@H](CC(=O)[O-])C(=O)[O-].O.O.[Cu+2] [Compound 3, [(Cu(II))(L-Asp)(H2O)2]·(H2O)0.62]
- Average feed consumption [1, 3]: 919 g
- Average weight gain [1, 3]: 514 g
- Feed-to-meat ratio [1, 3]: 1.788
- Survival rate (%) [1, 3]: 100%
- Relative weight gain rate (%) [1, 3]: 108.4%
- Physical characteristics of the experimental chickens [1]: normal physical characteristics
- Average weight gain [2]: 361 g
- Feed-to-meat ratio [2]: 1.385
- Average weight gain (weaned piglets; [3]): 11.92 kg
- Feed-to-meat ratio (weaned piglets; [3]): 2.114
- Survival rate (%) (weaned piglets; [3]): 100%
- Total feed consumption (weaned piglets; [3]): 251.97 kg
- Total weight gain (weaned piglets; [3]): 119.2 kg
- Relative weight gain rate (%) (weaned piglets; [3]): 109.4%
- Improvement in the feed conversion of the experimental pigs compared with compound 4 (weaned piglets): about 2 fold

Structure (SMILES): NC(CC(=O)[CH2][Cu][O]C(=O)CC(N)C(=O)O)C(=O)O (centres unmarked) [Compound 8, reference compound]
- Survival rate (%) [1, 3]: 100%
- Survival rate (%) (weaned piglets; [3]): 100%
- Production performance of the experimental pigs (weaned piglets; 50 mg/kg, versus control group): substantially close to that achieved in the control group
